The source of these data is US20240336654A1, “ANTIMICROBIAL PEPTIDOMIMETICS” (SPEXIS AG, priority 2021, published 2024).

Common to all, as to format: cell-based
In series [1] the test system is Escherichia coli ATCC 25922. The following applies: ATCC 25922. Summed up: (§1)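 MICs were determined by CLSI broth microdilution in cation-adjusted Mueller-Hinton II broth with about 5×10^5 CFU/mL inoculum. Peptides were tested in two-fold serial dilutions with 0.002% polysorbate 80 final. MIC in μg/mL is the lowest concentration with no visible growth after 18-20 h at 35 °C.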

Series [2] has as its system Escherichia coli MCR-1 Af 45. The following applies: MCR-1 Af 45. Summed up:
as §1

The test system of series [3] is Klebsiella pneumoniae SSI3010. The following applies: SSI3010. Summed up: as §1
Series [4] has as its system human red blood cells (hRBC). The following applies: red cells of human, 1 h, 200 μg/mL. The procedure, abridged:
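Percent hemolysis derived from OD540 of supernatants relative to full lysis by 2.5% Triton X-100 (PBS baseline). Washed fresh human erythrocytes (20% v/v) were exposed to 200 μg/mL peptide for 1 h at 37 °C with shaking.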

Where a SMILES comes first, the peptide text is derived from it. Bridges are numbered along the chain shown (N, C = ends). [ ]: non-standard residue; d: D form. The star is where a group is joined. Pro(trans-4-F) = O=C(O)[C@@H]1C[C@@H](F)CN1; Val(Nα-amidino) = CC(C)[C@H](NC(=N)N)C(=O)*; Pro(4,4-F2) = O=C(O)[C@@H]1CC(F)(F)CN1; Hyp = O=C(O)[C@@H]1C[C@@H](O)CN1; Pen = CC(C)(S)[C@H](N)C(=O)O; dDab = NCC[C@@H](N)C(=O)O; Orn = NCCC[C@H](N)C(=O)O; Dab = NCC[C@H](N)C(=O)O Bounds are passed on as bounds.

Take `CC[C@H](C)[C@H](NC(=O)[C@@H]1C[C@@H](O)CN1C(=O)[C@@H](N)C(C)C)C(=O)N[C@@H]1C(=O)N[C@@H](Cc2ccc(O)cc2)C(=O)N[C@@H](CO)C(=O)N[C@@H](CC(N)=O)C(=O)N[C@@H](CCCNC(=N)N)C(=O)N[C@@H](CCN)C(=O)N[C@@H]([C@@H](C)O)C(=O)N[C@H](CCN)C(=O)N[C@@H](CCCCN)C(=O)N[C@@H](CCN)C(=O)N[C@@H](CCCCN)C(=O)N[C@H](C(=O)N[C@@H](Cc2ccc(O)cc2)C(=O)O)CSSC1(C)C` [Example 62, Val-Hyp-Ile-Pen-Tyr-Ser-Asn-Arg-Dab-Thr-^DDab-Lys-Dab-Lys-Cys-Tyr] (H-V[Hyp]I[Pen]YSNR[Dab]T[dDab]K[Dab]KCY-OH; disulfide 4-15): the “Escherichia coli ATCC 25922 MIC” value in series [1] was determined as 0.125 mg/L. The “Escherichia coli MCR-1 Af45 MIC” value in series [2] stood at 0.0625 mg/L. Moreover, in series [3], the “Klebsiella pneumoniae SSI3010 MIC” value was 0.25 mg/L. Moreover, the “Hemolysis at 0.2 g/L” value in series [4] is given as less than 1%.

With `CC[C@H](C)[C@@H]1NC(=O)[C@H]([C@@H](C)O)NC(=O)[C@H](CCCCN)NC(=O)[C@@H](CCN)NC(=O)[C@H]([C@@H](C)O)NC(=O)[C@H](CCN)NC(=O)[C@H](CCCNC(=N)N)NC(=O)[C@H](CC(N)=O)NC(=O)[C@H](CCN)NC(=O)[C@H](Cc2ccc(O)cc2)NC(=O)[C@@H](NC(=O)[C@@H](NC(=O)[C@@H]2C[C@@H](O)CN2C(=O)[C@@H](N)C(C)C)[C@@H](C)CC)C(C)(C)SSC[C@@H](C(=O)N[C@@H](Cc2ccc(O)cc2)C(=O)O)NC1=O` [Example 50, Val-Hyp-Ile-Pen-Tyr-Dab-Asn-Arg-Dab-Thr-^DDab-Lys-Thr-Ile-Cys-Tyr] (H-V[Hyp]I[Pen]Y[Dab]NR[Dab]T[dDab]KTICY-OH; disulfide 4-15), the “Escherichia coli ATCC 25922 MIC” value in series [1] stood at 0.5 mg/L. The “Escherichia coli MCR-1 Af45 MIC” value in series [2] is listed as 0.5 mg/L. For the same molecule, the “Klebsiella pneumoniae SSI3010 MIC” value in series [3] is 1 mg/L. Moreover, the “Hemolysis at 0.2 g/L” value in series [4] is reported as less than 1%.

Regarding `CC[C@H](C)[C@H](NC(=O)[C@@H]1CC(F)(F)CN1C(=O)[C@@H](N)C(C)C)C(=O)N[C@@H]1C(=O)N[C@@H](Cc2ccc(O)cc2)C(=O)N[C@@H]([C@@H](C)O)C(=O)N[C@@H](CC(N)=O)C(=O)N[C@@H](CCCNC(=N)N)C(=O)N[C@@H](CCN)C(=O)N[C@@H]([C@@H](C)O)C(=O)N[C@H](CCN)C(=O)N[C@@H](CCCCN)C(=O)N[C@@H](CCN)C(=O)N[C@@H](CCN)C(=O)N[C@H](C(=O)N[C@@H](Cc2ccc(O)cc2)C(=O)O)CSSC1(C)C` [Example 9, Val-Pro(4,4F2)-Ile-Pen-Tyr-Thr-Asn-Arg-Dab-Thr-^DDab-Lys-Dab-Dab-Cys-Tyr] (H-V[Pro(4,4-F2)]I[Pen]YTNR[Dab]T[dDab]K[Dab][Dab]CY-OH; disulfide 4-15), the “Escherichia coli ATCC 25922 MIC” value in series [1] is recorded as 0.125 mg/L. Moreover, the “Escherichia coli MCR-1 Af45 MIC” value in series [2] worked out at 0.0625 mg/L. Further, in series [3], the “Klebsiella pneumoniae SSI3010 MIC” value stood at 0.25 mg/L. Besides, the “Hemolysis at 0.2 g/L” value in series [4] is given as less than 1%.

Consider `CC[C@H](C)[C@H](NC(=O)[C@@H]1C[C@@H](F)CN1C(=O)[C@@H](N)C(C)C)C(=O)N[C@@H]1C(=O)N[C@@H](Cc2ccc(O)cc2)C(=O)N[C@@H]([C@@H](C)O)C(=O)N[C@@H](CC(N)=O)C(=O)N[C@@H](CCCNC(=N)N)C(=O)N[C@@H](CCN)C(=O)N[C@@H]([C@@H](C)O)C(=O)N[C@H](CCN)C(=O)N[C@@H](CCCCN)C(=O)N[C@@H](CCN)C(=O)N[C@@H](CCN)C(=O)N[C@H](C(=O)N[C@@H](Cc2ccc(O)cc2)C(=O)O)CSSC1(C)C` [Example 8, Val-Pro((4R)F)-Ile-Pen-Tyr-Thr-Asn-Arg-Dab-Thr-^DDab-Lys-Dab-Dab-Cys-Tyr] (H-V[Pro(trans-4-F)]I[Pen]YTNR[Dab]T[dDab]K[Dab][Dab]CY-OH; disulfide 4-15), for which the “Escherichia coli ATCC 25922 MIC” value in series [1] turned out to be 0.125 mg/L. Moreover, the “Escherichia coli MCR-1 Af45 MIC” value in series [2] was 0.0625 mg/L. For the same molecule, in series [3], the “Klebsiella pneumoniae SSI3010 MIC” value is given as 0.25 mg/L. Moreover, in series [4], the “Hemolysis at 0.2 g/L” value is recorded as less than 1%.

For `CC[C@H](C)[C@H](NC(=O)[C@@H]1C[C@@H](O)CN1C(=O)[C@@H](N)C(C)C)C(=O)N[C@@H]1C(=O)N[C@@H](Cc2ccc(O)cc2)C(=O)N[C@@H](CO)C(=O)N[C@@H](CC(=O)O)C(=O)N[C@@H](CCCNC(=N)N)C(=O)N[C@@H](CCN)C(=O)N[C@@H]([C@@H](C)O)C(=O)N[C@H](CCN)C(=O)N[C@@H](CCCCN)C(=O)N[C@@H](CCN)C(=O)N[C@@H](CCN)C(=O)N[C@H](C(=O)N[C@@H](Cc2ccc(O)cc2)C(=O)O)CSSC1(C)C` [Example 23, Val-Hyp-Ile-Pen-Tyr-Ser-Asp-Arg-Dab-Thr-^DDab-Lys-Dab-Dab-Cys-Tyr] (H-V[Hyp]I[Pen]YSDR[Dab]T[dDab]K[Dab][Dab]CY-OH; disulfide 4-15; N-terminus assumed), the “Escherichia coli ATCC 25922 MIC” value in series [1] is reported as 0.5 mg/L. In addition, the “Escherichia coli MCR-1 Af45 MIC” value in series [2] came to 0.25 mg/L. Moreover, in series [3], the “Klebsiella pneumoniae SSI3010 MIC” value came out at 0.5 mg/L. Besides, the “Hemolysis at 0.2 g/L” value in series [4] was less than 1%.

As for `CC[C@H](C)[C@H](NC(=O)[C@@H]1C[C@@H](O)CN1C(=O)[C@@H](NC(=N)N)C(C)C)C(=O)N[C@H]1CCNC(=O)CC[C@@H](C(=O)N[C@@H](Cc2ccc(O)cc2)C(=O)O)NC(=O)[C@H](CCN)NC(=O)[C@H](CCN)NC(=O)[C@H](CCCCN)NC(=O)[C@@H](CCN)NC(=O)[C@H]([C@@H](C)O)NC(=O)[C@H](CCN)NC(=O)[C@H](CCCNC(=N)N)NC(=O)[C@H](CC(N)=O)NC(=O)[C@H](CO)NC(=O)[C@H](Cc2ccc(O)cc2)NC1=O` [Example 83, Gua-Val-Hyp-Ile-Dab-Tyr-Ser-Asn-Arg-Dab-Thr-^DDab-Lys-Dab-Dab-Glu-Tyr] ({Val(Nα-amidino)}-[Hyp]I[Dab]YSNR[Dab]T[dDab]K[Dab][Dab]EY-OH; lactam 3-14), the “Escherichia coli ATCC 25922 MIC” value in series [1] was 0.03125 mg/L. The “Escherichia coli MCR-1 Af45 MIC” value in series [2] is 0.03125 mg/L. Moreover, in series [3], the “Klebsiella pneumoniae SSI3010 MIC” value stood at 0.125 mg/L. In addition, the “Hemolysis at 0.2 g/L” value in series [4] was less than 1%.

Consider `CC[C@H](C)[C@H](NC(=O)[C@@H]1C[C@@H](O)CN1C(=O)[C@@H](NC(=N)N)C(C)C)C(=O)N[C@H]1CCNC(=O)CC[C@@H](C(=O)N[C@@H](Cc2ccc(O)cc2)C(=O)O)NC(=O)[C@H](CCN)NC(=O)[C@H](CCN)NC(=O)[C@H](CCCN)NC(=O)[C@@H](CCN)NC(=O)[C@H]([C@@H](C)O)NC(=O)[C@H](CCN)NC(=O)[C@H](CCCNC(=N)N)NC(=O)[C@H](CC(N)=O)NC(=O)[C@H]([C@@H](C)O)NC(=O)[C@H](Cc2ccc(O)cc2)NC1=O` [Example 119, Gua-Val-Hyp-Ile-Dab-Tyr-Thr-Asn-Arg-Dab-Thr-^DDab-Orn-Dab-Dab-Glu-Tyr] ({Val(Nα-amidino)}-[Hyp]I[Dab]YTNR[Dab]T[dDab][Orn][Dab][Dab]EY-OH; lactam 3-14), for which the “Escherichia coli ATCC 25922 MIC” value in series [1] is 0.0625 mg/L. Also, the “Escherichia coli MCR-1 Af45 MIC” value in series [2] worked out at 0.0625 mg/L. Further, the “Klebsiella pneumoniae SSI3010 MIC” value in series [3] is reported as 0.125 mg/L. Also, the “Hemolysis at 0.2 g/L” value in series [4] is listed as less than 1%.
